Reference: US12275733B2, “Substituted pyrido[3,4-b]indoles for the treatment of cartilage disorders” (Sanofi, priority 2016, dated 2025)

Columns and labels:
ATDC5 cells = assay: Chondrogenesis activity assay in ATDC5 cells (collagen type II induction, immunofluorescence); type: cell-based, mouse; settings: Mus musculus; for EC50: collagen type II induction in ATDC5 cells, concentration reaching 50% of maximum induction; for Emax: maximum percent induction of collagen type II relative to internal reference compound at 10 μM, ATDC5 cells
Procedure, shortened: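 Mouse ATDC5 cells in insulin (10 μg/ml)-containing DMEM/F12 differentiation medium with 5% FCS were exposed to compound, typically 40 nM–10 μM at 0.1% DMSO, for 4 days at 37 °C. Intracellular collagen type II was quantified by Alexa Fluor 488 immunostaining with high-content imaging, relative to DMSO and a 10 μM reference compound.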

[1] = tested on: primary human chondrocyte pellet cultures; assay: Chondrogenesis activity assay in primary human chondrocyte pellet cultures (proteoglycan (aggrecan) induction, Blyscan assay); type: cell-based; settings: for EC50: 336 h, proteoglycan (aggrecan) induction, primary human chondrocyte pellets, 2 weeks culture; for Emax: Homo sapiens, Chondrocyte, maximum percent proteoglycan (aggrecan) induction relative to the internal reference compound at 10 μM
Experimental: B) Chondrogenesis Activity Assay in Primary Human Chondrocyte Pellet Cultures
In this assay human articular chondrocytes are harvested by enzymatic digestion from articular cartilage and passaged several times to dedifferentiate the chondrocytes and to propagate the cells. Cells are cultured as cell pellets in the presence of the compounds of the invention over 2 weeks, and the chondrogenic differentiation is quantified by the production of the chondrogenic marker aggrecan (proteoglycan).
In detail, primary chondrocytes were harvested by enzymatic digestion from cartilage of osteoarthritis patients undergoing knee joint replacement surgery, and cultured in vitro. Cells were passaged one or two times and aliquots were cryopreserved. To initiate chondrogenesis experiments, cell aliquots were thawn, cultured in Chondrocyte Growth Medium (CGM, Lonza, #CC-3216) and passaged twice to further propagate and dedifferentiate cells. Pellet cultures were initiated by seeding 2.5×10E5 cells per well into a 96-well deep well plate in 600 μl chondrocyte differentiation medium consisting of Dulbecco's Modified Eagle Medium (DMEM, Invitrogen, #41966), 1×ITS-solution (Insulin/Transferrin/sodium selenite; 100× solution: Invitrogen, #51500056), 5 μg/mL linoleic acid (Sigma, #L1012-1G), 1× nonessential amino acids (100× solution: Invitrogen, #11140); 10 nM Dexamethasone, 2 ng/ml TGF-β1 (transforming growth factor β1) and 10 μg/ml ascorbic acid. Cells were spun to pellets by centrifugation (10 min, 400×g). Test compounds dissolved in DMSO were added to yield increasing compound concentrations, typically from 40 nM to 10 μM, and a final DMSO concentration of 0.1%, and the cell pellets cultured at 37° C., and 5% CO2 for 2 weeks. On each 96-well plate, control wells containing no test compound but the same concentration of DMSO, i.e. untreated cells, were included and used as reference for the determination of the effect of the test compounds on the cells, and wells containing an internal reference compound at a concentration of 10 μM were included and used as positive control and for standardizing the results. Chondrocyte differentiation medium and the compounds were exchanged twice weekly until harvest of the pellets.
For harvest of the pellets, medium was removed and the pellet was homogenized by enzymatic digestion. 100 μl of protease solution containing 0.4 mg/ml papain, 50 mM sodium phosphate, 4 mM EDTA and 0.48 mg/ml L-cysteine was added to the pellet in each well of a 96-well plate, the plate was sealed with a plate sealer foil (SILVERseal, Greiner Bio-One) and incubated for 4 to 6 hours at 65° C. with agitation.
The concentration of proteoglycan (aggrecan) was determined by quantification of the sulfated glycosaminoglycan side chains of aggrecan using the Blyscan assay (Kit from Biocolor). Aliquots of the papain-digest were transferred to 400 μl of Blyscan dye solution and incubated at room temperature for 45 min with agitation (1200 rpm). The mixture was centrifuged at 3760×g for 45 min, the supernatant was discarded, and the stained pellet was redissolved in 400 μl of Blyscan dissociation reagent by rotation until the precipitate completely resolved. Optical density was measured at 656 nm using a Tecan Saphire2 instrument, and the amount of proteoglycan determined against a standard curve with chondroitin-4-sulfate.
Induction of proteoglycan (aggrecan) was calculated for each compound concentration relative to the control (untreated cells, i.e. no test compound added), and an EC50 value (effective concentration 50 (in μM (micromollliter)), i.e. the compound concentration at which the effect of the compound on proteoglycan (aggrecan) induction reaches 50% of the maximum induction) was calculated using a sigmoidal signal fit procedure. […]

| SMILES | EC50 (ATDC5 cells) [µM] | Emax (ATDC5 cells) [%] | EC50 [1] [µM] | Emax [1] [%] |
| --- | --- | --- | --- | --- |
| CCc1cc2c3cc(Br)cc(-c4cnn(C)c4)c3n(CC)c2c(C)n1 [Example 216, 6-Bromo-3,9-diethyl-1-methyl-8-(1-methyl-1H-pyrazol-4-yl)-9H-pyrido[3,4-b]indole] | > 10 | < 20 | 0.99 | > 200 |
| COc1ccc(-c2cc(Br)cc3c2[nH]c2c(C)nc(C)cc23)cc1 [Example 217, 6-Bromo-8-(4-methoxy-phenyl)-1,3-dimethyl-9H-pyrido[3,4-b]indole] | > 3.3 | 20 to 50 | 4.9 | > 200 |
| COc1ccc(-c2cc(Cl)cc3c2[nH]c2c(C)nccc23)nc1N [Example 218, 6-(6-Chloro-1-methyl-9H-pyrido[3,4-b]indol-8-yl)-3-methoxy-pyridin-2-ylamine] | > 1.1 | < 20 | 40 | < 40 |
| COc1cc(-c2cc(Cl)cc3c2[nH]c2c(C)nccc23)ccc1OCc1cccc(F)n1 [Example 223, 6-Chloro-8-[4-(6-fluoro-pyridin-2-ylmethoxy)-3-methoxy-phenyl]-1-methyl-9H-pyrido[3,4-b]indole] | > 3.3 | 20 to 50 | 27 | < 40 |
| Cc1nccc2c1[nH]c1c(-c3ccc(OCC4CCN(C)C4)cc3)cc(Cl)cc12 (centres unmarked) [Example 228, 6-Chloro-1-methyl-8-[4-(1-methyl-pyrrolidin-3-ylmethoxy)-phenyl]-9H-pyrido[3,4-b]indole] | 0.15 | 50 to 80 | 0.14 | 100 to 200 |
| Cc1nccc2c1[nH]c1c(-c3cccc(NC(=O)Nc4ccc(F)cc4F)c3)cc(Cl)cc12 [Example 230, 1-[3-(6-Chloro-1-methyl-9H-pyrido[3,4-b]indol-8-yl)-phenyl]-3-(2,4-difluoro-phenyl)-urea] | > 3.3 | < 20 | 21 | < 40 |
| Cc1nccc2c1[nH]c1c(-c3ccc4c(c3)CC(C)(C)O4)cc(Cl)cc12 [Example 236, 6-Chloro-8-(2,2-dimethyl-2,3-dihydro-benzofuran-5-yl)-1-methyl-9H-pyrido[3,4-b]indole] | > 3.3 | < 20 | 4.6 | > 200 |
| Cc1nccc2c1[nH]c1c(-c3ccc(CN)cc3)cc(Cl)cc12 [Example 241, 4-(6-Chloro-1-methyl-9H-pyrido[3,4-b]indol-8-yl)-benzylamine] | > 1.1 | 20 to 50 | 1.5 | 100 to 200 |
| CCn1c2c(-c3cnn(Cc4ccccn4)c3)cc(Cl)cc2c2ccnc(C)c21 [Example 244, 6-Chloro-9-ethyl-1-methyl-8-(1-pyridin-2-ylmethyl-1H-pyrazol-4-yl)-9H-pyrido[3,4-b]indole] | 1.1 | > 80 | 4.9 | > 200 |
| Cc1nccc2c1[nH]c1c(-c3ccnc(F)c3Br)cc(Cl)cc12 [Example 245, 8-(3-Bromo-2-fluoro-pyridin-4-yl)-6-chloro-1-methyl-9H-pyrido[3,4-b]indole] | > 1.1 | < 20 | 10 | 40 to 100 |
| Cc1nccc2c1[nH]c1c(-c3cccc(N4CCOCC4)c3)cc(Cl)cc12 [Example 247, 6-Chloro-1-mehtyl-8-(3-morpholin-4-yl-phenyl)-9H-pyrido[3,4-b]indole] | > 3.3 | < 20 | 3.8 | > 200 |
| Cc1nccc2c1[nH]c1c(-c3cccc(C=O)c3)cc(Cl)cc12 [Example 250, 3-(6-Chloro-1-methyl-9H-pyrido[3,4-b]indol-8-yl)-benzaldehyde] | > 3.3 | 50 to 80 | 4.9 | 100 to 200 |
| Cc1nccc2c1[nH]c1c(-c3cc(C(F)(F)F)cc(C(F)(F)F)c3)cc(Cl)cc12 [Example 251, 8-(3,5-Bis-trifluoromethyl-phenyl)-6-chloro-1-methyl-9H-pyrido[3,4-b]indole] | > 10 | < 20 | 9.1 | 40 to 100 |
| CCn1c2c(-c3ccc(OCC4(C)COC4)cc3)cc(Cl)cc2c2ccnc(C)c21 [Example 256, 6-Chloro-9-ethyl-1-methyl-8-[4-(3-methyl-oxetan-3-ylmethoxy)-phenyl]-9H-pyrido[3,4-b]indole] | 0.16 | > 80 | 1.3 | > 200 |
| Cc1nccc2c1[nH]c1c(-c3cccc(C(O)c4ccccn4)c3)cc(Cl)cc12 (centres unmarked) [Example 258, [3-(6-Chloro-1-methyl-9H-pyrido[3,4-b]indol-8-yl)-phenyl]-pyridin-2-yl-methanol] | > 3.3 | < 20 | 8.2 | 40 to 100 |
| Cc1nccc2c1[nH]c1c(-c3ccc(C(=O)NCCN(C)C)cc3)cc(Cl)cc12 [Example 264, 4-(6-Chloro-1-methyl-9H-pyrido[3,4-b]indol-8-yl)-N-(2-dimethylamino-ethyl)-benzamide] | > 1.1 | 20 to 50 | 1.5 | 40 to 100 |
| Cc1nccc2c1[nH]c1c(-c3cccc(C(=O)NCCN(C)C)c3)cc(Cl)cc12 [Example 265, 3-(6-Chloro-1-methyl-9H-pyrido[3,4-b]indol-8-yl)-N-(2-dimethylamino-ethyl)-benzamide] | > 1.1 | < 20 | 3.8 | < 40 |
| Cc1nccc2c1[nH]c1c(-c3ccc(OCc4nccc5ccccc45)cc3)cc(Cl)cc12 [Example 270, 6-Chloro-8-[4-(isoquinolin-1-ylmethoxy)-phenyl]-1-methyl-9H-pyrido[3,4-b]indole] | > 1.1 | 20 to 50 | 4.3 | 40 to 100 |
| Cc1nccc2c1[nH]c1c(-c3cccc(OCc4nccn4C)c3)cc(Cl)cc12 [Example 271, 6-Chloro-1-methyl-8-[3-(1-methyl-1H-imidazol-2-ylmethoxy)-phenyl]-9H-pyrido[3,4-b]indole] | > 3.3 | 20 to 50 | 4.9 | > 200 |
| Clc1cc(-c2cnn(Cc3cccnc3)c2)c2c(c1)c1ccncc1n2CC1CC1 [Example 288, 6-Chloro-9-cyclopropylmethyl-8-(1-pyridin-3-ylmethyl-1H-pyrazol-4-yl)-9H-pyrido[3,4-b]indole] | 0.52 | > 80 | 1.2 | > 200 |
